Test results taken from US10449247B2, “Compositions and methods for enhancing immune response” (priority 2007, dated 2019).

Tests used:
Format in all cases: cell-based, Human
THP-1 cells [1] = assay: FACS analysis of surface receptor expression in THP-1 cells (no LPS)
Procedure: Human THP-1 monocytoid cells (acute monocytic leukemia) were obtained from American Type Tissue Collection (#TIB-202). Cells were cultured in RPMI-1640 medium supplemented with 2 mM L-glutamine, 10 mM HEPES, 1.0 mM sodium pyruvate, 10% fetal bovine serum and antibiotics. Cells were seeded (5×10^5 cells/well, 6-well culture plates) 24 h prior to treatment with OxBC and harvested for analysis according to three protocols: 1) Cells were treated with OxBC (2.5, 7.5 or 12.5 μM) for 24 h and than evaluated for surface receptor expression; 2) Cells were treated with OxBC (0.1, 0.5 or 1.0 μM) for 24 h, at which point fresh media lacking OxBC was supplied for 48 h prior to analysis, and 3) Cells were treated with OxBC (0.1, 0.5 or 1.0 μM) for 24 h, at which point fresh media lacking OxBC was supplied for 5 days. Treated cells were then stimulated with LPS (15 ng/ml) for 24 h prior to analysis. Cells incubated in an equivalent percentage (v/v) of DMSO alone served as controls. For studies in which LPS stimulation was not employed, PMA 25 ng/ml) was used as positive stimulator of monocytes differentiation.
Phycoerythrin (PE)-labeled primary antibodies against human CD11b, CD14, CD16, CD36, CD51/CD61, HLA (broad isoforms), HLA-B7, CD86, CD40, CD40L and CD3 were obtained from AbCam. Receptor expression was evaluated using direct immunofluorescence labeling and flow cytometry analysis. Briefly, triplicate cell aliquots in cold buffer (PBS containing 10% FBS and 1% sodium azide) were incubated with primary antibody (10-20 μl) for 45 min at room temperature under low light conditions. Cells were washed three times and resuspended in 500 μl of buffer for analysis using a FacsAria cell sorter. Unlabeled cells and cells labeled with antibody alone served as controls.

THP-1 cells [2] = assay: Cytokine release ELISA, naive THP-1 cells treated directly
Procedure: Human THP-1 monocytoid cells (acute monocytic leukemia) were obtained from American Type Tissue Collection (#TIB-202). Cells were cultured in RPMI-1640 medium supplemented with 2 mM L-glutamine, 10 mM HEPES, 1.0 mM sodium pyruvate, 10% fetal bovine serum and antibiotics. Peripheral blood monocytes (PBM) and lymphocytes (PBL) were isolated from PBMC by positive and negative selection, respectively, using the Miltenyi Biotec MACs magnetic separation system. PBM were cultured in RPMI-1640 medium supplemented with 2 mM L-glutamine, 10 mM HEPES, 1.0 mM sodium pyruvate, 20% fetal bovine serum and antibiotics. PBL were seeded in the same medium with the exception that 10% FBS was used. Specific cell densities and experimental conditions are described below.
Cells were evaluated in both naïve challenge and LPS challenge models. For naive studies, cells were exposed directly to OxBC for varying time frames and cytokine expression evaluated in conditioned medium (CM) by ELISA. For LPS challenge, cells were first incubated with OxBC for the indicated time, at which point OxBC was removed and replaced with fresh medium lacking the compound. At different time points post-treatment, cells were then challenged with LPS (15 ng/ml) for 24 h prior to cytokine levels in CM being evaluated by ELISA. In a variation of the LPS challenge scenario, primary PBM were first challenged with LPS for 24 h. After this initial stimulation, LPS-treated cells were then exposed to OxBC for 24 h before CM was harvested for ELISA analysis.
Analysis of cytokine levels in CM was performed using Endogen Human ELISA kits (Pierce) according to manufacturer's instructions. CM was prepared by centrifugation to remove cellular debris and either used neat, diluted with complete medium or concentrated using Nanosep 3K centrifugal concentrators (Pall) to ensure that cytokine levels fell within the linear ranges of each assay. Where appropriate, samples were stored at −80° C. and thawed by gradual equilibration at room temperature prior to use. Briefly, 50 μl samples were added to each well of a microplate to which antibody specific to the cytokine of interest had been adsorbed and incubated at room temperature for 1-3 h. Plates were washed three times to remove nonspecifically bound material and incubated for an additional 1-3 h with biotinylated antibody specific to the cytokine of interest. After washing, plates were incubated for 30 min with steptavidin-horse radish peroxidase reagent followed by an additional washing cycle. Washed plates were incubated for 30 min with 3,3′,5,5′-tetramethylbenzidine (TMB) substrate, the reaction stopped and absorbance measured at 450 nm (550 nm reference). Reference curves were generated for each cytokine using the supplied recombinant standard.
A primary proof-of-principle study was conducted in THP-1 cells that were untreated (mock) or treated for 24 h with OxBC, PMA (25 ng/ml) and vehicle (DMSO). […] Moreover, no change in MCP-1 and IL-8 expression was detected at lower concentrations of the compound. Both MCP-1 and IL-8 function as cytokines to recruit immune cells to sites of infection or injury. For example, IL-8 primarily recruits neutrophils within an inflammatory response and is also termed neutrophils recruitment factor (NRF), while MCP-1 primarily functions to recruit other monocytes. Expression of either cytokine by monocytes/macrophages is induced in response to detection of antigen or phagocytosis of an invading pathogen.

THP-1 cells [3] = assay: Vybrant phagocytosis assay (fluorescein-labeled E. coli particles), THP-1 cells
Procedure: Human THP-1 monocytoid cells (acute monocytic leukemia) were obtained from American Type Tissue Collection (#TIB-202). Cells were cultured in RPMI-1640 medium supplemented with 2 mM L-glutamine, 10 mM HEPES, 1.0 mM sodium pyruvate, 10% fetal bovine serum and antibiotics. Primary peripheral blood monocytes (PBM) were isolated from mixed peripheral blood mononuclear cell preparations using the Miltenyi Biotec MACs magnetic separation system. PBM were cultured in the same medium as THP-1 cells, with the exception that 20% fetal bovine serum was used. Cells were seeded (1×10^5 cells/well, 96-well culture plates) 24 h prior to treatment with OxBC, PMA (25 ng/ml) and/or LPS (15 ng/ml) as described below. Cells incubated in an equivalent percentage (v/v) of DMSO alone served as controls.
Phagocytosis in monocyte cultures was evaluated using a Vybrant phagocytosis assay kit (Invitrogen, #V6694) based upon the ingestion of fluorescein-labeled E. coli (strain K12) bacterial particles. Briefly, treated cells were incubated at 37° C. for 5 h with a 1000 suspension of fluorescent bioparticles in Hank's buffered salt solution. […] The trypan blue solution was removed and the number of ingested particles determined using a fluorescence microplate reader (480 nm excitation, 520 nm emission). […] After recovery, the cells were treated with LPS for an 24 h before phagocytosis was measured.

[4] = THP-1, 24 h, PMA 25 ng/ml, proof-of-principle

CCCCCCCCCCCCCC(=O)O[C@@H]1[C@@H](C)[C@@]2(O)[C@@H](C=C(CO)C[C@]3(O)C(=O)C(C)=C[C@@H]23)[C@@H]2C(C)(C)[C@]12OC(C)=O [PMA, Phorbol myristate acetate]
CD11b expression, fold change relative to vehicle controls (THP-1 cells [1]; THP-1, 24 h, PMA 25 ng/ml): 0.97 ± 0.02 fold | CD14 expression, fold change relative to vehicle controls (THP-1 cells [1]; THP-1, 24 h, PMA 25 ng/ml): 1.91 ± 0.06 fold | CD16 expression, fold change relative to vehicle controls (THP-1 cells [1]; THP-1, 24 h, PMA 25 ng/ml): 4.77 ± 0.31 fold | CD36 expression, fold change relative to vehicle controls (THP-1 cells [1]; THP-1, 24 h, PMA 25 ng/ml): 1.03 ± 0.01 fold | CD51 expression, fold change relative to vehicle controls (THP-1 cells [1]; THP-1, 24 h, PMA 25 ng/ml): 5.07 ± 0.29 fold | B7-2 (CD86) expression, fold change relative to vehicle controls (THP-1 cells [1]; THP-1, PMA 25 ng/ml): 2.04 ± 0.29 fold | CD11b receptor density (fluorescence intensity), fold change relative to vehicle controls (THP-1 cells [1]; THP-1, PMA 25 ng/ml): 1.97 ± 0.01 fold | CD36 receptor density (fluorescence intensity), fold change relative to vehicle controls (THP-1 cells [1]; THP-1, PMA 25 ng/ml): 4.57 ± 0.03 fold | CD40L expression, fold change relative to vehicle controls (THP-1 cells [1]; THP-1, PMA 25 ng/ml): 1.4 ± 0.10 fold | CD40 counts, fold change relative to vehicle controls (THP-1 cells [1]; THP-1, PMA 25 ng/ml): 0.98 ± 0.01 fold | CD40 intensity, fold change relative to vehicle controls (THP-1 cells [1]; THP-1, PMA 25 ng/ml): 1.31 ± 0.1 fold | HLA (DQ/DR/DP) expression, fold change relative to vehicle controls (THP-1 cells [1]; THP-1, PMA 25 ng/ml): 1.05 ± 0.01 fold | increase of densities of CD11b and CD36 (THP-1 cells [1]; THP-1, PMA 25 ng/ml): 2 to 4 fold | IFNγ (THP-1 cells [2]; [4]): 10.0 ± 1.3 pg/mL | IL-1β (THP-1 cells [2]; [4]): 73.4 ± 2.8 pg/mL | IL-8 (THP-1 cells [2]; [4]): 637.2 ± 18.6 pg/mL | IL-12 (THP-1 cells [2]; [4]): 8.0 ± 6.5 pg/mL | MCP-1 (THP-1 cells [2]; [4]): 654.9 ± 60.2 pg/mL | TNF (THP-1 cells [2]; [4]): 110.1 ± 1.7 pg/mL | IFNγ (THP-1 cells [2]; THP-1, PMA 25 ng/ml, Table 3): 24.9 pg/mL | IL-1β (THP-1 cells [2]; THP-1, PMA 25 ng/ml, Table 3): 62.5 pg/mL | IL-6 (THP-1 cells [2]; THP-1, PMA 25 ng/ml, Table 3): 20.3 pg/mL | IL-8 (THP-1 cells [2]; THP-1, PMA 25 ng/ml, Table 3): 712.4 pg/mL | IL-12 (THP-1 cells [2]; THP-1, PMA 25 ng/ml, Table 3): 20.9 pg/mL | MCP-1 (THP-1 cells [2]; THP-1, PMA 25 ng/ml, Table 3): 574.8 pg/mL | TNF (THP-1 cells [2]; THP-1, PMA 25 ng/ml, Table 3): 108.5 pg/mL | phagocytic activity (THP-1 cells [3]; THP-1, PMA 24 h, 72 h recovery): large increase in phagocytic activity | increase in phagocytic activity relative to control cultures (THP-1 cells [3]; naive THP-1, PMA 25 ng/ml 24 h): 12.94±2.05 fold
